Source: PMC7909954 (eLife, 2021)
Where “and” joins values, the source holds several entries; their conditions need not be identical. Equal entries are not always repeated. Where two headings read alike, the source gives them in different places.

How the values were obtained:
KOR [1] = target: T1, KOR (Homo sapiens, UniProt P41145); assay: cell-based; details: for Emax: HTLA, read-out: Emax% arrestin recruitment (Tango) hKOR
KOR [2] = target: T1, KOR; assay: cell-based; details: for Emax: HEK-293T, read-out: Emax% cAMP inhibition hKOR
KOR [3] = target: T1, KOR; details: for Log RA cAMP hKOR / LogRA Tango hKOR: transduction coefficient log(T/KA); for ΔlogRA Tango hKOR / ΔlogRA cAMP hKOR / Bias factor (cAMP-Tango) hKOR: vs U50,488h; for Bias factor (cAMP-Tango) hKOR: >1 G protein bias, <1 arrestin bias
MOR [4] = target: T2, MOR (Homo sapiens, UniProt P35372)
T2 sequence (P35372 whole entry): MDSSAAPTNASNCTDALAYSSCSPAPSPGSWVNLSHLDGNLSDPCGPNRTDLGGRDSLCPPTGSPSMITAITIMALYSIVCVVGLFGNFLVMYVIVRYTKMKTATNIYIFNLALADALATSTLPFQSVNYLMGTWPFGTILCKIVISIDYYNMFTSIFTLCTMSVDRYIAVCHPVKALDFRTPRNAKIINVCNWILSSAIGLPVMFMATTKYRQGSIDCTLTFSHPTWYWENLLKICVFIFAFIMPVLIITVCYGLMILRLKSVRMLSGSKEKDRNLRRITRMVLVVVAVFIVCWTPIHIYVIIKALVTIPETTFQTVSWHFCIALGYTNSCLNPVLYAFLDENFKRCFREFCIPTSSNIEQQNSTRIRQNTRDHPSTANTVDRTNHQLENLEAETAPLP

MOR [5] = target: T2, MOR; assay: cell-based; details: for Emax: HEK-293T, read-out: Emax% cAMP inhibition hMOR
mMOR [6] = target: T3, mMOR (Mus musculus, UniProt P42866); assay: biochemical
T3 sequence (P42866 whole entry): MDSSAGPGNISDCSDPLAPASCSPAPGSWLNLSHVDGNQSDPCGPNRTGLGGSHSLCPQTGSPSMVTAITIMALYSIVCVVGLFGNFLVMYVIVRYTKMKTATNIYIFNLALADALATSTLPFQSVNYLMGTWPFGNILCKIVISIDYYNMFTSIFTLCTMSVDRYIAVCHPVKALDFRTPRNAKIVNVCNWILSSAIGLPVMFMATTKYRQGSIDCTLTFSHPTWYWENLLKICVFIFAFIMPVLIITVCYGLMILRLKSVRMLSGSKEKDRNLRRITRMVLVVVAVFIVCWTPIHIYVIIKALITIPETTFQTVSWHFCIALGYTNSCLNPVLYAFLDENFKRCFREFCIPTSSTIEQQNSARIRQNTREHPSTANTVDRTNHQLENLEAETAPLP

mDOR [7] = target: T4, mDOR (Mus musculus, UniProt P32300); assay: biochemical; details: read-out: Emax mDOR [35S]GTPγS
T4 sequence (P32300 whole entry): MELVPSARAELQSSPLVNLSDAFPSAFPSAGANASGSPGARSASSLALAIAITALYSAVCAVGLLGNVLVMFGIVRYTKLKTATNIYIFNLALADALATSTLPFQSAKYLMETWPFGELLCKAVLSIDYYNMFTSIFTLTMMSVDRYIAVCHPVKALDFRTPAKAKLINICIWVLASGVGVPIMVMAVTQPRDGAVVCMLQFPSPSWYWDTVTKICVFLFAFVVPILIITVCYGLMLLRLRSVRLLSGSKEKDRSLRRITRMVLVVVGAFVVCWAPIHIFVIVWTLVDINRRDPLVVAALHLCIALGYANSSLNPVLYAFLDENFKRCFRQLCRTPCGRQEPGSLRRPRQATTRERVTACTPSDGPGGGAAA

mKOR [8] = target: T5, mKOR (Mus musculus, UniProt P33534); assay: biochemical; details: for EC50: EC50 mKOR [35S]GTPγS, ± SEM; for Emax: read-out: Emax mKOR [35S]GTPγS
T5 sequence (P33534 whole entry): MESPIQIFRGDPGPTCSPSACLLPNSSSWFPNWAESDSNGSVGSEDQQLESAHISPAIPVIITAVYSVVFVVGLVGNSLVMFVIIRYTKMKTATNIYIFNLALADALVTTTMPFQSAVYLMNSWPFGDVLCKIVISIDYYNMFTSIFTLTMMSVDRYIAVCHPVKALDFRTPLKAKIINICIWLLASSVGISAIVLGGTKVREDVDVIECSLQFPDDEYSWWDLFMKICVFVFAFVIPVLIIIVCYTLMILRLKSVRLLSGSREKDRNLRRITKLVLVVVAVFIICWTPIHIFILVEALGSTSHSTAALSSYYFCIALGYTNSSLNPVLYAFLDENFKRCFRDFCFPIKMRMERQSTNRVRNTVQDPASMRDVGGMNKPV

DOR [9] = target: T6, DOR (Homo sapiens, UniProt P41143); assay: cell-based; details: for EC50: EC50 arrestin recruitment hDOR, Tango; for Emax: HTLA, read-out: Emax% arrestin recruitment hDOR
T6 sequence (P41143 whole entry): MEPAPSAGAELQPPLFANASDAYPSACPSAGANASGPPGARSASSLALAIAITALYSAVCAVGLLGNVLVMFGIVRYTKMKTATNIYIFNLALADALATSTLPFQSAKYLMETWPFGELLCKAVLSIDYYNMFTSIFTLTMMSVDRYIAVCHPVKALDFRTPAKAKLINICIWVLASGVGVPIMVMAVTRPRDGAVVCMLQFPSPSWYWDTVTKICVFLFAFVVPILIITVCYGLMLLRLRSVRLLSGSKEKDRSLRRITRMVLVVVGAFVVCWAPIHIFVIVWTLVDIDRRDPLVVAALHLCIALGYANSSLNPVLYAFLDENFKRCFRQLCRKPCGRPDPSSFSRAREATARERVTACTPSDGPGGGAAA

mMOR [10] = target: T3, mMOR; assay: biochemical; details: for EC50: EC50 mMOR [35S]GTPγS, ± SEM; for Emax: read-out: Emax mMOR [35S]GTPγS
rKOR [11] = target: T7, rKOR (Rattus norvegicus, UniProt P34975); assay: cell-based; details: for Emax: HEK-293T, read-out: Emax% G protein activation (BRET) rKOR
T7 sequence (P34975 whole entry): as the sequence (P33534 whole entry) above, with D11E, S17A, S51P, A308V counted along it

MOR [12] = target: T2, MOR; remark: listed apart in the source
DOR [13] = target: T6, DOR; assay: cell-based; details: for EC50: EC50 cAMP inhibition hDOR; for Emax: HEK-293T, read-out: Emax% cAMP inhibition hDOR
mMOR [14] = target: T3, mMOR; assay: cell-based; details: for Emax: HEK-293T, read-out: Emax% G protein activation (BRET) mMOR
MOR [15] = target: T2, MOR; assay: cell-based; details: for Emax: HTLA, read-out: Emax% arrestin recruitment (Tango) hMOR
mDOR [16] = target: T4, mDOR; assay: cell-based; details: for EC50: EC50 G protein activation (BRET) mDOR; for Emax: HEK-293T, read-out: Emax% G protein activation (BRET) mDOR
mKOR [17] = target: T5, mKOR; assay: biochemical
mDOR [18] = target: T4, mDOR; assay: cell-based
rKOR [19] = target: T7, rKOR
rKOR [20] = target: T7, rKOR; assay: cell-based; details: HEK-293T, read-out: Emax% arrestin recruitment (BRET) rKOR
[21] = EC50 arrestin recruitment (Tango) hKOR
[22] = EC50 G protein activation (BRET) mMOR

T1 sequence (P41145 whole entry): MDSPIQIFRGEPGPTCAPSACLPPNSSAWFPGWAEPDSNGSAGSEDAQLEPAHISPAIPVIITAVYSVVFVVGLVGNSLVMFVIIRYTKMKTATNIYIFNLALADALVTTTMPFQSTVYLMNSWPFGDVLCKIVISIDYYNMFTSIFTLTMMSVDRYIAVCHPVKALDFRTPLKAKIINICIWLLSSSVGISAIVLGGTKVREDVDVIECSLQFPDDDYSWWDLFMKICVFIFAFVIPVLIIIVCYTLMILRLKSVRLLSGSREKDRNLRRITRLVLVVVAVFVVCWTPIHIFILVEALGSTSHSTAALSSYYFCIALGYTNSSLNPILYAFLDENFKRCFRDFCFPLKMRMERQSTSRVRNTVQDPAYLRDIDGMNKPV

With NCc1ccc(C(=O)N[C@@H]2CC[C@H]3[C@H]4Cc5ccc(O)c6c5[C@@]3(CCN4CC3CC3)[C@H]2O6)cc1 [MP1209, 4-(Aminomethyl)-N-((4R,4aR,7R,7aR,12bS)−3-(cyclopropylmethyl)−9-hydroxy-2,3,4,4a,5,6,7,7a-octahydro-1H-4,12-methano[1]benzofuro[3,2-e]isoquinolin-7-yl)benzamide] as the compound, how does the Emax (KOR [1]) read?
Its Emax is 67 ± 3%.

And the EC50 (KOR [1]; pEC50 arrestin recruitment (Tango) hKOR, ± SEM)?
The EC50 was 0.372 nM.

And the EC50 (KOR [2]; EC50 cAMP inhibition hKOR)?
The EC50 was 0.024 nM.

And the Emax (KOR [2])?
Its Emax is 100 ± 1.23%.

What about the “ΔΔlog RA (cAMP-Tango) hKOR” value (KOR [3]) of the same compound?
Its value is -0.238±0.32.

What about the “Log RA cAMP hKOR” value (KOR [3]) of the same compound?
Its value is 10.55±0.06.

What about the “LogRA Tango hKOR” value (KOR [3]) of the same compound?
Its value is 8.735±0.220.

And the “ΔlogRA Tango hKOR” value (KOR [3])?
Its value is 0.368±0.31.

What about the “ΔlogRA cAMP hKOR” value (KOR [3]) of the same compound?
The value was 0.13±0.084.

And the “arrestin recruitment at hMOR (in words)” value (MOR [4])?
Its value is “null arrestin recruitment”.

And the Emax (MOR [5])?
The Emax was 98.5 ± 0.96%.

What about the EC50 (MOR [5]; pEC50 cAMP inhibition hMOR) of the same compound?
The EC50 was 0.245 nM.

Which EC50 (KOR [1]; [21]) does the source give for CO[C@@]12CC[C@@H](NC(=O)c3cccc(I)c3)C3Oc4c(O)ccc5c4[C@@]31CCN(CC1CC1)C2C5 (stereo partly drawn) [MP1305, N-((4aS,7R,12bS)−3-(Cyclopropylmethyl)−9-hydroxy-4a-methoxy-2,3,4,4a,5,6,7,7a-octahydro-1H-4,12-methanobenzofuro[3,2-e]isoquinolin-7-yl)−3-iodobenzamide] here?
Its EC50 is 25.7 nM.

And the Emax (KOR [1])?
The Emax was 75 ± 1%.

What about the Ki (mMOR [6]) of the same compound?
Its Ki is 0.25 ± 0.02 nM.

And the EC50 (KOR [2]; EC50 cAMP inhibition hKOR)?
Its EC50 is 0.72 nM.

And the Emax (KOR [2])?
The Emax was 102 ± 1.2%.

And the Emax (mDOR [7])?
The Emax was 22 ± 0.9%.

What about the EC50 (mKOR [8]) of the same compound?
Its EC50 is 7.4 ± 1.8 nM.

And the Emax (mKOR [8])?
Its Emax is 42.2 ± 5.3%.

What about the EC50 (DOR [9]) of the same compound?
The EC50 was 228 nM.

And the Emax (DOR [9])?
Its Emax is 89 ± 2.8%.

What about the “ΔΔlog RA (cAMP-Tango) hKOR” value (KOR [3]) of the same compound?
The value was 0.55±0.04.

And the “Bias factor (cAMP-Tango) hKOR” value (KOR [3])?
The value was 4.

What about the “Log RA cAMP hKOR” value (KOR [3]) of the same compound?
Its value is 9.22±0.012.

And the “LogRA Tango hKOR” value (KOR [3])?
The value was 7.17±0.025.

And the “ΔlogRA Tango hKOR” value (KOR [3])?
Its value is -1.341±0.036.

And the “ΔlogRA cAMP hKOR” value (KOR [3])?
The value was -0.79±0.017.

And the EC50 (mMOR [10])?
Its EC50 is 0.7 ± 0.1 nM.

And the Emax (mMOR [10])?
Its Emax is 81.2 ± 16%.

What about the EC50 (rKOR [11]) of the same compound?
Its EC50 is 5.04 nM.

And the Emax (rKOR [11])?
Its Emax is 35 ± 3%.

What about the “Bias factor (cAMP-Tango) hMOR” value (MOR [12]) of the same compound?
Its value is 11.

What about the “Log RA cAMP hMOR” value (MOR [12]) of the same compound?
Its value is 9.79±0.053.

And the “LogRA Tango hMOR” value (MOR [12])?
The value was 6.89±0.048.

What about the “ΔlogRA Tango hMOR” value (MOR [12]) of the same compound?
Its value is 0.109±0.049.

And the “ΔlogRA cAMP hMOR” value (MOR [12])?
The value was 1.17±0.076.

And the “ΔΔlog RA (cAMP-Tango) hMOR” value (MOR [12])?
Its value is 1.059±0.090.

What about the EC50 (DOR [13]) of the same compound?
The EC50 was 74.2 nM.

What about the Emax (DOR [13]) of the same compound?
Its Emax is 71 ± 2.4%.

And the EC50 (mMOR [14]; [22])?
The EC50 was 0.74 nM.

And the Emax (mMOR [14])?
The Emax was 72 ± 2%.

What about the EC50 (MOR [15]) of the same compound?
Its EC50 is 16.4 nM.

And the Emax (MOR [15])?
Its Emax is 21 ± 3%.

And the EC50 (mDOR [16])?
The EC50 was 40.4 nM.

What about the Emax (mDOR [16]) of the same compound?
Its Emax is 105 ± 5.9%.

What about the Ki (mKOR [17]) of the same compound?
Its Ki is 2.5 ± 0.3 nM.

What about the EC50 (MOR [5]; EC50 cAMP inhibition hMOR) of the same compound?
The EC50 was 0.12 nM.

And the Emax (MOR [5])?
The Emax was 69 ± 1.8%.

Which results are given for O=C(N[C@@H]1CC[C@@]2(O)C3Cc4ccc(O)cc4[C@@]2(CCN3CC2CC2)C1)c1cccc(I)c1 [MP1601, N-((4bR,6R,8aS)−11-(Cyclopropylmethyl)−3,8a-dihydroxy-6,7,8,8a,9,10-hexahydro-5H-9,4b-(epiminoethano)phenanthren-6-yl)−3-iodobenzamide]?
EC50 (mDOR [18]; EC50 arrestin recruitment (BRET) mDOR): 9 nM; Emax (mDOR [18]; HEK-293T, read-out: Emax% arrestin recruitment (BRET) mDOR): 16 ± 1.4%; EC50 (KOR [1]; [21]): 3.23 nM; Emax (KOR [1]): 107 ± 3%; Log RA BRET-G rKOR (rKOR [19]): 7.917±0.018; LogRA BRET-Arr rKOR (rKOR [19]): 7.113±0.052; ΔΔlog RA (BRETG-BRETArr) rKOR (rKOR [19]): -0.006±0.057; ΔlogRA BRET-G rKOR (rKOR [19]; vs U50,488h): 0.324±0.052; ΔlogRA BRET-arr rKOR (rKOR [19]; vs U50,488h): 0.33±0.052; Ki (mMOR [6]): 0.2 ± 0.01 nM; Emax (KOR [2]): 109 ± 1%; EC50 (KOR [2]; pEC50 cAMP inhibition hKOR, ± SEM): 0.174 nM; Emax (mDOR [7]): 67 ± 3.9%; EC50 (mKOR [8]): 3 ± 0.7 nM; Emax (mKOR [8]): 72 ± 4.5%; EC50 (DOR [9]): 86.7 nM; Emax (DOR [9]): 203 ± 5.4%; ΔΔlog RA (cAMP-Tango) hKOR (KOR [3]): -0.282±0.023; Bias factor (cAMP-Tango) hKOR (KOR [3]): 0.5 and 0.52; Log RA cAMP hKOR (KOR [3]): 9.85±0.014; LogRA Tango hKOR (KOR [3]): 8.51±0.009; ΔlogRA Tango hKOR (KOR [3]): 0.097±0.012; ΔlogRA cAMP hKOR (KOR [3]): -0.19±0.020; EC50 (mMOR [10]): 0.5 ± 0.2 nM; Emax (mMOR [10]): 45 ± 4.6%; Emax (rKOR [20]): 37 ± 3%; Emax (rKOR [11]): 75 ± 3%; Bias factor (cAMP-Tango) hMOR (MOR [12]): 4; Log RA cAMP hMOR (MOR [12]): 9.84±0.002; LogRA Tango hMOR (MOR [12]): 7.65±0.035; ΔlogRA Tango hMOR (MOR [12]): 0.87±0.036; ΔlogRA cAMP hMOR (MOR [12]): 1.44±0.002; ΔΔlog RA (cAMP-Tango) hMOR (MOR [12]): 0.57±0.036; EC50 (DOR [13]): 2.76 nM; Emax (DOR [13]): 106 ± 2.3%; EC50 (mMOR [14]; [22]): 2.2 nM; Emax (mMOR [14]): 49 ± 3%; EC50 (mMOR [14]; pEC50 G protein activation (BRET) mMOR): 2.51 nM; EC50 (MOR [15]): 4.02 nM; Emax (MOR [15]): 27 ± 2%; EC50 (mDOR [16]): 6.27 nM; Emax (mDOR [16]): 105 ± 6.7%; Ki (mKOR [17]): 2.13 ± 0.3 nM; EC50 (MOR [5]; EC50 cAMP inhibition hMOR): 0.1 nM; Emax (MOR [5]): 69 ± 1%; EC50 (MOR [5]; pEC50 cAMP inhibition hMOR): 0.102 nM
